Laboratory results from patent EP0038567A1, “Deazapurine nucleoside, formulations thereof, and use thereof in therapy” (THE WELLCOME FOUNDATION LIMITED, priority 1980, dated 1981).
Where two headings read alike, the source gives them in different places.

Key:
adjuvant arthritis = experiment: Adjuvant arthritis, developing and established, arthritic joint scores; type: in vivo; conditions: Rattus norvegicus, rats; for ED25: feed or water, 1008 h, drug in diet from day 21 to 42; for ED50: po, 384 h, drug in diet from day 1 to day 16
Description: The effect of 3-deazaadenosine in rats againt both developing and established adjuvant arthritis was determined by the method described by R. Vinegar et al. Journal of Immunopharmacology. 1, 483, (I979). The scoring procedure of A.L.F. Currey and M. Ziff, J. Exp. Med., 121, 185 (1968) was used to assess the arthritic joint scores of rats. There were 5 animals in each drug-treated group. For developing adjuvant arthritis the drugs were administered in the diet from day 1 to day 16. For established adjuvant arthritis the drugs were administered from day 21 to 42.

liver = experiment: Liver damage in animal models; type: in vivo; conditions: animal models used
Half life = conditions: in vivo
lipoxygenase = experiment: Prostaglandin metabolism in vitro, lipoxygenase pathway; type: biochemical
[1] = earlier disclosed activity (US Patent No. 4 148 888); cited from earlier work
[2] = system: carrageenan pleurisy (3 hr. exudate volume); experiment: Carrageenan Pleurisy Assay (CPA), local (intra-pleural) anti-inflammatory activity; type: in vivo; conditions: read-out: ED50 3 hr. vol. local (intra-pleural)
Description: Following the procedure described by Vinegar et al. /Eur. J. Rheum. […] There were 5 animals in each drug-treated group and the control group.

Therapeutic index = conditions: in vivo
[3] = system: carrageenan pleurisy (3 hour pleural exudate volume); experiment: Carrageenan Pleurisy Assay (CPA), acute anti-inflammatory activity, oral dosing; type: in vivo; conditions: for ED50: po, dose reducing the 3 hour exudate volume by 50%, p.o., 5 animals per group, read-out: ED50 3 hr. vol. p.o.
Description: Following the procedure previously described by Vinegar et al. in Proc. Soc. Exp. Biol. Med., 143, 711, (1973) as recently modified /Vinegar et al., Eur. J. Rheum. Inflamm., 1, 204 (1978)/ the acute anti-inflammatory activity of 3-deazaadenosine was compared with that of known anti-inflammatory drugs. The average 3 hour exudate volume for each drug treated group was determined and the % inhibition relative to solvent-fed control animals calculated, the ED 50 (mg/kg body weight) being the dose required to reduce the 3 hour exudate volume by 50%. There were 5 animals in each drug-treated group and the control group.
By means of the Carrageenan Pleurisy Assay of Example 1 the duration of action of the tests compounds after a single oral pretreating dose was determined. For 3-deazaadenosine the effect lasted for 14.9 hours at 6 mg/kg (p.o.) whilst for aspirin (150 mg/kg p.o.) and acetaminophen (220 mg/kg p.o.) the effect lasted for […] and 2 hours respectively. This value represents the time (hours) of drug administration prior to the injection of carrageenan in which the inhibition of the 3 hour pleural exudate volume declined to 40%.

Antipyretic activity = conditions: in vivo
cyclooxygenase = experiment: Prostaglandin metabolism in vitro, cyclooxygenase pathway; type: biochemical
Water solubility = type: physicochemical
immune response = conditions: earlier disclosed activity (UK Patent Application No. 40447/78); cited from earlier work
Analgesic activity = type: in vivo; conditions: per se

Nc1nccc2c1ncn2[C@@H]1O[C@H](CO)[C@@H](O)[C@H]1O [3-Deazaadenosine, 4-amino-1-β-D-ribofuranosyl-1H-imidazo-[4,5-c]-pyridine]
ED25 (adjuvant arthritis): ~18 mg/kg/day | ED50 (adjuvant arthritis): 8 ± 2.8 mg/kg | liver damage (liver): does not cause liver damage | half life (Half life): short half life | inhibition of prostaglandin metabolism, lipoxygenase pathway (lipoxygenase): does not inhibit | dose required for antiviral activity [1]: 100-200 mg/kg per day | ED50 ([2]; local (intra-pleural) administration, 5 animals per group): 0.05 mg/kg | therapeutic index (Therapeutic index): high therapeutic index | duration of action ([3]; general statement in the description, no dose given): about 15 hours | ED50 [3]: 2.8 ± 0.65 mg/kg | duration of action ([3]; single oral pretreating dose 6 mg/kg (p.o.), time before carrageenan at which inhibition of 3 hour pleural exudate volume declined to 40%): 14.9 h | antipyretic activity (Antipyretic activity): not antipyretic | inhibition of prostaglandin metabolism, cyclooxygenase pathway (cyclooxygenase): does not inhibit | water solubility (Water solubility): high water solubility | dose required for immunesuppression (immune response): more than 30 mg/kg | analgesic activity (Analgesic activity): no analgesic activity

CC(=O)Oc1ccccc1C(=O)O [Aspirin]
ED25 (adjuvant arthritis): 150 mg/kg/day | ED50 (adjuvant arthritis): 150 ± 53.1 mg/kg | ED50 [2]: 0.04 mg/kg | ED50 [3]: 28 ± 3.2 mg/kg | duration of action ([3]; single oral pretreating dose 150 mg/kg p.o., time before carrageenan at which inhibition of 3 hour pleural exudate volume declined to 40%): 35 h

C[C@]12CCC(=O)C=C1CC[C@@H]1[C@@H]2[C@@H](O)C[C@@]2(C)[C@H]1CC[C@]2(O)C(=O)CO [Hydrocortisone]
ED50 [2]: 0.1 mg/kg | ED50 [3]: 14 ± 10.2 mg/kg

C[C@]12C=CC(=O)C=C1CC[C@@H]1[C@@H]2[C@@H](O)C[C@@]2(C)[C@H]1CC[C@]2(O)C(=O)CO [Prednisolone]
ED25 (adjuvant arthritis): 0.2 mg/kg/day | ED50 (adjuvant arthritis): 1 ± 0.7 mg/kg | ED50 [3]: 3 ± 0.5 mg/kg

CC(=O)Nc1ccc(O)cc1 [acetaminophen]
duration of action ([3]; single oral pretreating dose 220 mg/kg p.o., time before carrageenan at which inhibition of 3 hour pleural exudate volume declined to 40%): 2 h
